{"source": "paper PMC6267478", "about": "“Heterologous Expression of a Thermostable β-1,3-Galactosidase and Its Potential in Synthesis of Galactooligosaccharides” (Marine Drugs, 2018)", "system": "T1, rMaBGA (recombinant β-1,3-galactosidase MaBGA)", "T1 construct": "full-length ORF in pET-22b(+) NdeI/XhoI, 6xHis tag (C-terminal by vector and primer design), E. coli BL21(DE3), IMAC + SEC, 66 kDa on SDS-PAGE; primers imply N-terminus MKLGVCYY and native C-terminus AIWQEI before LE-His tag", "test": "ONP release at […] nm, nonlinear Michaelis-Menten fit", "format": "biochemical, Marinomonas sp. BSi20414", "conditions": "50 mM PBS pH 7.0, 37 °C (general activity assay); 0.25-5 mM ONPG", "data": [{"smiles": "O=[N+]([O-])c1ccccc1O[C@@H]1O[C@H](CO)[C@H](O)[C@H](O)[C@H]1O", "note": "[ONPG]", "values": [{"measurement": "Km", "result": 6.85, "unit": "mM"}]}]}
